Test results as given in patent US20210395696A1, “ISOLATED NASOPHARYNGEAL CARCINOMA CELLS AND DERIVATIVES PREPARED THEREOF” (INSTITUTE FOR MEDICAL RESEARCH, priority 2018, published 2021).

How the values were obtained:
[1] = tested on: gfp-luc2-labelled PDX cells (NPC), metastatic model; experiment: Drug testing in metastatic tumour model of gfp-luc2-labelled PDX (intra-cardiac injection); format: in vivo, NSG mice; conditions: metastatic model (left ventricle injection); 2 mg/kg i.p. weekly for 3 weeks; bioluminescence imaging
Procedure: (§1) All experiments were performed in accordance with national regulations and were approved by the AC UC of Ministry of Health, Malaysia. NSG mice, 6-8 weeks old were anaesthetized using Ketamine-Xylazine (100 mg/ml and 10 mg/ml).
(§2) To test the effect of drug on tumour growth inhibition, subcutaneous and/or metastatic model were used. For subcutaneous model, 2×10^5 cells of gfp-luc2 cells were resuspended in RPMI and mixed with matrigel at 1:1 ratio and injected into the right flank. For metastatic model, 2×10^5 cells of gfp-luc2 cells were resuspended in 100 μl of RPMI and injected into left ventricle. Weekly bioluminescence imaging (BLI) were carried out to monitor the progress of tumour growth using VIS Spectrum.
(§3) When tumour volume reached to 50-150 mm^3 or once the signal intensity reached 1×10^4 (average radiance, p/sec/cm^2/sr) mice were randomised into control or treatment group. Treatment commenced 35 days post inoculation. Mice were treated with vehicle (0.9% NaCl) or cisplatin (2 mg/kg) via intraperitoneal (i.p.) injection, weekly for 3 weeks. Tumour volume was measured thrice weekly using callipers and BLI was carried out weekly. Mice were observed daily for general wellbeing and tumour burden.

[2] = tested on: gfp-luc2-labelled PDX cells (NPC), subcutaneous model; experiment: Drug testing in subcutaneous tumour model of gfp-luc2-labelled PDX; format: in vivo, NSG mice; conditions: 2 mg/kg i.p. weekly for 3 weeks, bioluminescence imaging
Procedure: as §1, §2, §3

## N.N.[Cl][Pt][Cl] [cisplatin]
[1]
  tumour response as measured by the luminescence signals intensity: tumour regression
[2]
  tumour response as measured by the luminescence signals intensity: tumour regression
